In patent US5952376A, “Trienyl compounds” (The Trustees of the University of Pennsylvania, priority 1997, dated 1999):

Tests used:
[1] = system: chemoresistant tumor types, including human melanoma and lung, colon, and brain cancers; conditions: cited from earlier work
mitosis = conditions: cited from earlier work
tubulin = conditions: cited from earlier work
microtubule assembly = conditions: cited from earlier work
FADU = assay: Antitumor Activity (in vitro), Pharynx-sq FADU; assay type: cell-based; conditions: Homo sapiens
Protocol: (§1) Trienes (+)-3a and (+)-3b were tested for antitumor activity generally in accordance with the procedure described by Bai, et al., Biochemistry 1995, 34, 9714.

SK-N-SH = assay: Antitumor Activity (in vitro), Neuroblast SK-N-SH; assay type: cell-based; conditions: Homo sapiens
Protocol: as §1

BXPC-3 = assay: Antitumor Activity (in vitro), Pancreas-a BXPC-3; assay type: cell-based; conditions: Homo sapiens
Protocol: as §1

NCI-H460 = assay: Antitumor Activity (in vitro), Lung-NSC NCI-H460; assay type: cell-based; conditions: Homo sapiens
Protocol: as §1

SW 1736 = assay: Antitumor Activity (in vitro), Thyroid ca SW 1736; assay type: cell-based; conditions: Homo sapiens
Protocol: as §1

human cancer cell lines = assay: antitumor activity against a series of human cancer cell lines; assay type: cell-based
Protocol: as §1

DU-145 = assay: Antitumor Activity (in vitro), Prostate DU-145; assay type: cell-based; conditions: Homo sapiens
Protocol: as §1

Compound | activity against chemoresistant tumor types [1] | inhibition of mitosis (mitosis) | binding to tubulin (tubulin) | blocking microtubule assembly (microtubule assembly) | GI50 (FADU) [nM] | GI50 (SK-N-SH) [nM] | GI50 (BXPC-3) [nM] | GI50 (NCI-H460) [nM] | GI50 (SW 1736) [nM] | antitumor activity (human cancer cell lines) | GI50 (DU-145) [nM]
Spongistatin 1 | active | inhibits mitosis | binding to tubulin | blocking microtubule assembly | – | – | – | – | – | – | –
C=C(Cl)/C=C/C(O)CC(=C)C[C@H]1OC(OC)[C@H](OCc2ccccc2)[C@@H](OCc2ccccc2)[C@@H]1OCc1ccccc1 (single isomer, unassigned) [Triene 3b] | – | – | – | – | 8300 | 3600 | 5300 | 11000 | 9600 | active | > 16000
C=C/C=C/C(O)CC(=C)C[C@H]1OC(OC)[C@H](OCc2ccccc2)[C@@H](OCc2ccccc2)[C@@H]1OCc1ccccc1 (single isomer, unassigned) [Triene 3a] | – | – | – | – | 470 | 540 | 440 | 460 | 1200 | active | 560
